Measurements reported in article PMC7334220, “Diamond Blackfan anemia is mediated by hyperactive Nemo-like kinase” (Nature Communications, 2020).

How the values were obtained:
NLK dimerization and p53 [1] = test: YFP-/CFP-NLK FRET (NLK dimerization) and p53 flow cytometry in cord blood CD34+ HSPCs; type: cell-based, human; settings: d
From the text: Ribosome-insufficiency induces stabilization of p53 protein and contributes to DBA pathogenesis[27],[57]–[59]. […] To further examine the role of p53 in NLK activation in our model and DBA patient samples, we utilized Nutlin-3. Nutlin-3 inhibits the E3 ubiquitin ligase MDM2 binding of p53 and subsequently stabilizes p53 from ubiquitin-dependent degradation. NLK dimerizes upon activation[46] and the detection of FRET from dimerized YFP- and CFP-NLK pairs correlates with NLK activity in RPS19-insufficiency (Fig. 3d). […] We gated p53 expression into p53^low in which 6.6% of cells activate NLK, and p53^hi where 91.9% of cells activate NLK (Fig. 6b.ii). RPS19-insufficiency increased the p53^hi population from 8.1 to 34.1%, corresponding to an increase from 9.0 to 36.1% of cells with elevated NLK-dimerization (Fig. 6b.iii).
Fig. 6 NLK is activated in early erythroid progenitors and requires P53 stabilization in RPS19-insufficiency. a Cord blood CD34^+ progenitors were transduced with lentivirus expressing shRNA against luciferase (shLuc) or RPS19 (shRPS19) co-expressing GFP. Cells were also transduced with or without shRNA against p53 co-expressing mCherry. […] Cells were stained for p53 and both p53 and FRET was measured by flow cytometry. […] Bone marrow mononuclear cells from three DBA patients were pooled and analyzed simultaneously (iii). d Documentation of the percentage of cells with dimerizing NLK in p53^hi and p53^low is tabulated and can be compared with NLK in vitro kinase activity. e—green Samples were gated to include non-erythroid CD71^-CD235^- populations, MEP- and BFU-E-enriched CD71^lowCD235^- populations, CFU-E-enriched CD71^hiCD235^- populations and proerythroblast and intermediate erythroblast CD71^hiCD235^+ populations. […]

NLK dimerization and p53 [2] = test: YFP-/CFP-NLK FRET (NLK dimerization) and p53 flow cytometry in healthy bone marrow mononuclear cells; type: cell-based, human; settings: Nutlin-3 24 h, control 6.6%, Fig. 6c, d
From the text: (§1) Bars represent means ± SD with individual data points overlaid. n = 3 independent experiments performed in triplicate. […] Source data are provided as a Source Data file.

[3] = test system: RPS19-insufficient cord blood CD34+ HSPCs; test: In vitro differentiation of cord blood CD34+ HSPCs transduced with shRNA against RPS19 (cell count and flow cytometry); type: cell-based, human; settings: RPS19-insufficient erythroblasts treated at 100nM; rebuttal Experiment 12
Method: Cells were plated at 2000 cell per well in 96-well plates in the presence or absence of doxycycline. Relative amounts of live cells were quantified by luciferase-based Cell titer-Glo® assay. b TGFβR1 inhibitors were assessed for their ability to increase cell expansion in RPS19-insuffiency. As a control, vehicle alone (no doxycycline) is represented at the far left while all other samples were treated with doxycycline to induce RPS19-insufficiency. c Kit^+ erythroid progenitors were grown in the absence of doxycycline and in the presence of 10 µM of indicated compound. In addition, cells were treated with 5 ng/ml of TGFβ1 for 5 days before being subjected to Cell titer-Glo® assay. d Differentiating cord blood CD34^+ progenitors were transduced with shRNA against luciferase or RPS19 and treated with inhibitors at working concentrations for TGFβ inhibition every three days. […] Cells were counted and CD235^+ erythroid (i and iii) and CD11b^+ myeloid cell (ii and iv) percentages were determined by flow cytometry. The number of erythroid or myeloid cells is expressed as a percentage of the number of that lineage with no cytokine or drug treatment. Bars represent means ± SD with individual data points overlaid. n = 3 independent experiments performed in triplicate. Statistics: two-tailed Student’s t test, significant *p < 0.05. Also see Supplementary Fig. 1. Erythroid expansion is depicted in red while myeloid is in purple. Source data are provided as a Source Data file.
Cells were counted and assessed for cell surface expression of CD235. b Lin-Kit^+ hematopoietic progenitors were obtained from three mouse embryos expressing tetracycline-inducible shRNA against RPS19 at day E14.5 or three untreated mice, and thee mature RPL11^+/+ or three mature RPL11^+/lox mice treated with tamoxifen for eight weeks. […] Values were expressed as a percentage relative to untreated controls. c, d Intracellular phosphorylation of NLK at Thr298 was determined by capillary electrophoresis using the Peggy Sue™ Automated Western blotting platform. After lysis, 4 µg of protein from the CD235^+ population was probed against pThr298-NLK and normalized to GAPDH. […] After counting the total cell population, the ratio of CD235^+ erythroblasts was determined by flow cytometry and number of CD235^+ erythroblasts calculated. This was expressed as a percentage of the average number of erythroid cells present in untreated healthy controls. f NLK phosphorylation was assessed by capillary electrophoresis as above. Bars represent means ± SD with individual data points overlaid. […] Statistics: two-tailed Student’s t test, significant *p < 0.05. Also see Supplementary Fig. 8. Source data are provided as a Source Data file.
Primary human CD34^+ hematopoietic stem and progenitor cells were purified from cord or peripheral blood (New York Blood Center) or from human fetal liver tissue (Advanced Bioscience Resources and University of California, Los Angeles Center for AIDS Research) by using magnetic-activated cell sorting (Miltenyi Biotec) and were cryopreserved. Upon thawing, cells were cultured in x-Vivo15 media (Lonza) containing 10% fetal bovine serum, fms-related tyrosine kinase 3 (50 ng/ml), […] (50 ng/ml), interleukin-3 (IL-3; 20 ng/ml), interleukin-6 (IL-6; 20 ng/ml), and stem cell factor (50 ng/ml). When applied, TGFβ1 was added at 5 ng/ml. Kp53A1 cells were obtained from Javier Leon and cultured in DMEM supplemented with 10% fetal bovine serum at 37 or 32 °C.

p38 phosphorylation = p38 phosphorylation in treated cells (Western blot of pp38); type: cell-based, human; settings: 100nM; rebuttal Experiment 12
[4] = test system: NLK phosphorylation at Thr298; test: SDS-PAGE / pThr298-NLK Western blot after NLK in vitro kinase reaction (rebuttal Experiment 6); type: biochemical, human; settings: Day 7
Method: Experiment 5. Activated p38 and NLK have different kinase specificity for NLK, c- […]
Immunopurification of activated NLK and p38 were incubated in the presence of ATP, Mg2+ and immobilized, dephosphorylated substrates. After 30 mins, the degree of substrate phosphorylation was determined. Of the four substrates examined, NL K wa s the most phosphorylated substrate detected wit h p38. The extent of phosphorylation of the other substrates by p38 was normalized to NLK as substrate , i.e. NLK-100%, c-Myb -79%, Raptor-33%, ST AT 3 -18%. Raptor was the most phosphorylated substrate of NLK. Consequently, phosphorylation of other substrates by NLK is expressed as a percentage of NLK-mediated Raptor phosphorylation, i.e . NLK-37%, c-M yb -80%, […]
Conclusion: W hile p38 and NLK can phosphorylate NLK, c-Myb and Raptor in vitro, we observe different specificities between immunoprecipitated NLK and p38. This would […]
1) W estern blotting analysis or RadioIsotope ivk assay showing increase of NLK autophosphorylation activity (Graph data is not suitable. SDS-PAGE gel data with molecular maker is suitable to show the activity of NLK itself)
Response: We performed the W estern blot analysis as requested. Purified NLK incubated with immunopurified NLK from treated samples, were separated by SDS-PAGE and immunoblotted with pThr298- NLK antibody. […]

c-Myb = c-Myb expression and phosphorylation in Kp53A1 cells switched to 32 °C (Western blot); type: cell-based; settings: pretreated 30 min, 37 to 32 °C for 0, 16, 48 h, Fig. 7d
Method: as §1
Inhibitors were added to cells at indicated concentrations with a final DMSO concentration of 0.5%. […] IC50 calculations were obtained using 8–9 concentrations of compound and generated using the IC50 Calculator software by AAT Bioquest®. NLK, p38, or ALK5 for in vitro kinase assays were immunopurified from Kp53A1 cells. NLK activation was induced by incubating cells at 32° for 24-48 h, p38 by stimulating with IL-3, IL-6, SCF, and Epo at the same concentrations used for differentiating erythroid progenitors.

[5] = 3 days with Nutlin-3, Fig. 6b.ii

COc1ccc(C2=N[C@@H](c3ccc(Cl)cc3)[C@@H](c3ccc(Cl)cc3)N2C(=O)N2CCNC(=O)C2)c(OC(C)C)c1 [Nutlin-3]
% FREThi in P53hi (NLK dimerization and p53 [1]; [5]): 91.9%
% FREThi in P53low (NLK dimerization and p53 [1]; [5]): 6.6%
% FREThi (cells with NLK dimerization) (NLK dimerization and p53 [1]; shLuc, 3 days with Nutlin-3, control 9.0%, Fig. 6b): 50.2%
% P53hi (NLK dimerization and p53 [2]): 31.7%

CNC(=O)c1ccc(C)c(-n2c(C)cc(OCc3ccc(F)cc3F)c(Br)c2=O)c1 [PH797804]
increase in erythropoiesis in RPS19-insufficiency [3]: no increase
inhibition of p38 (p38 phosphorylation): inhibited
phosphorylation of NLK at Thr298 by NLK immunopurified from treated RPS19-insufficient cells [4]: not suppressed

C[C@@H]1CN(Cc2ccc(F)cc2)[C@@H](C)CN1C(=O)c1cc2c(C(=O)C(=O)N(C)C)cn(C)c2cc1Cl [SCIO-469]
increase in erythropoiesis in RPS19-insufficiency [3]: no increase
inhibition of p38 (p38 phosphorylation): inhibited

CC(=O)N[C@@H](CSC(=O)[C@]1([C@@H](O)C(C)C)NC(=O)[C@H](C)[C@@H]1O)C(=O)O [lactacystin]
expression and phosphorylation of c-Myb after NLK activation (c-Myb): sustained out to 48 h
